From PubChem BioAssay (NCI)
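Exposure lasted 48 hours, with cells grown in 96-well plates and compounds tested at five concentrations. GI50 = concentration required for 50% inhibition of growth. TGI is the concentration that stops growth completely.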

Test system: SF-268 CNS
Test: DTP human tumour cell line panel, 48 h

Row | Structure (SMILES) | GI50 [µM] | TGI [µM]
1 | Cc1ccc(C(=O)CN(/C=C/C(=O)C(F)(F)F)c2ccc(S(N)(=O)=O)cc2)cc1 | > 100 | > 100
2 | COC(C(O)CO)C(O)C(O)C(=O)NNc1ccccc1 (centres undefined) |  | > 100
3 | NS(=O)(=O)c1ccc(NC2(C(=O)O)CCCC2)cc1 |  | > 100
4 | O=C(O)C1OC(n2cc(F)c(=O)[nH]c2=O)CC1O (centres undefined) |  | > 100
5 | CC(C)C(Nc1c2ccccc2nc2ccccc12)C(=O)O (centres undefined) |  | > 100
6 | N=C1C(c2nc3ccccc3s2)=C(O)CN1c1cc(C(F)(F)F)ccc1Cl | 28.8 | > 100
7 | COc1ccccc1CCc1cc(OC)c(OC)c(OC)c1 |  | > 100
8 | COc1cc2c(cc1OC)C(CC(=O)NN=C(C)C)NCC2 (centres undefined) |  | > 100
9 | COC(=O)/C(=N\Nc1nnc(C)n1N)C(C#N)c1ccc(Cl)cc1 (centres undefined) |  | > 100
10 | Cc1cccc(NC(=O)C(=O)C(C(=O)c2ccc3ccccc3c2)C2OC(=O)c3ccccc32)c1C (centres undefined) |  | 53.6
11 | CCOC(=O)[C@@H](N)CCC(=O)N[C@@H](CSCc1ccccc1)C(=O)N[C@@H](C(=O)OCC)c1ccccc1 | 16.6 | 31.3
12 | COc1ccc(Nc2c3ccccc3nc3occc23)cc1 | 3.68 | 34
13 | CS/C(N)=N\NC(=O)CCC(=O)Nc1ccccc1C(F)(F)F |  | > 100
14 | CC(=O)/C(C)=N/NC(=O)c1ccccc1O | > 100 | > 100
15 | CCCCCCCC/C=C/CCCCCCCC(=O)OC[C@H]1O[C@@H](n2ccc(N)nc2=O)C(F)(F)[C@@H]1O | < 0.0224 | 19.7
16 | NS(=O)(=O)c1ccc(N=Nc2c(O)[nH]c3ccc(-c4cnco4)cc23)cc1 | > 25 | > 25

Test system: RXF 393 renal
Test: DTP human tumour cell line panel, 48 h

Row | Structure (SMILES) | TGI [µM] | GI50 [µM]
17 | Cc1nc(N)sc1C(=O)/C=C\c1ccc2c(c1)OCO2 | > 100 | 
18 | CN1CCN(CCCOc2ccc3nc(Nc4ccc(Cl)c(C(F)(F)F)c4)ccc3c2)CC1 | 28 | 12.7
19 | Cn1c(=O)c(C(c2ccc([N+](=O)[O-])cc2)c2c(O)c3ccccc3n(C)c2=O)cc2ccccc21 (centres undefined) | > 100 | 
20 | CC(C)n1nc(-c2cc3cc(O)ccc3[nH]2)c2c(N)ncnc21 | 0.661 | 0.121
21 | CCCCC(O)(c1ccc(Cl)cc1)C(CN1CCOCC1)c1ccc(Cl)cc1 (centres undefined) | 22.8 | 8.15
22 | CCOC(=O)C1=C(C)N(NC(=O)Nc2ccccc2)C(=O)C1=P(c1ccccc1)(c1ccccc1)c1ccccc1 | 72.5 | 
23 | COc1cc(C=C2C(=O)NC(=O)NC2=O)cc(OC)c1OC | > 100 | 
24 | Nn1c(=O)n(Cc2ccccc2)n(-c2ccccc2)c1=O | > 100 | 
25 | NCC1Nc2ccccc2[C@@H](O)C1O (some centres undefined) | > 100 | 
26 | OC[C@H]1CCCC1O (some centres undefined) | > 100 | 
27 | Cc1cccc(N2CCN(C(=S)c3ccc4c(c3)OCO4)CC2)c1 | 5.82 | 1.14
28 | O=C1OC(C(O)CO)C(=O)C1=O (centres undefined) | 3210 | 1700
29 | COC(=O)C1=CNC=C(C(=O)OC)C1C1=CC(=O)C(C)=CC1=O | > 54.2 | 31.1
30 | C=C1C(=O)O[C@H]2[C@H]1CC/C(COC(=O)C(=O)c1cn(Cc3ccccc3)c3ccccc13)=C\CC[C@@]1(C)O[C@@H]21 | 3.43 | 1.89
31 | Cc1ccc(C(=O)CN(/C=C/C(=O)C(F)(F)F)c2ccc(S(N)(=O)=O)cc2)cc1 | > 100 | > 100
32 | COC(C(O)CO)C(O)C(O)C(=O)NNc1ccccc1 (centres undefined) | > 100 | 

Row | Structure (SMILES) | TGI [µM] | GI50 [µM]
33 | NS(=O)(=O)c1ccc(NC2(C(=O)O)CCCC2)cc1 | > 100 | 
34 | O=C(O)C1OC(n2cc(F)c(=O)[nH]c2=O)CC1O (centres undefined) | > 100 | 
35 | CC(C)C(Nc1c2ccccc2nc2ccccc12)C(=O)O (centres undefined) | > 100 | 
36 | N=C1C(c2nc3ccccc3s2)=C(O)CN1c1cc(C(F)(F)F)ccc1Cl | > 100 | 18
37 | COc1ccccc1CCc1cc(OC)c(OC)c(OC)c1 | 57.7 | 
38 | COc1cc2c(cc1OC)C(CC(=O)NN=C(C)C)NCC2 (centres undefined) | > 100 | 
39 | COC(=O)/C(=N\Nc1nnc(C)n1N)C(C#N)c1ccc(Cl)cc1 (centres undefined) | > 100 | 
40 | Cc1cccc(NC(=O)C(=O)C(C(=O)c2ccc3ccccc3c2)C2OC(=O)c3ccccc32)c1C (centres undefined) | 11.6 | 
41 | CCOC(=O)[C@@H](N)CCC(=O)N[C@@H](CSCc1ccccc1)C(=O)N[C@@H](C(=O)OCC)c1ccccc1 | 27.5 | 14.1
42 | COc1ccc(Nc2c3ccccc3nc3occc23)cc1 | 17.7 | 1.85
43 | CS/C(N)=N\NC(=O)CCC(=O)Nc1ccccc1C(F)(F)F | > 100 | 
44 | CC(=O)/C(C)=N/NC(=O)c1ccccc1O | > 100 | > 100
45 | CCCCCCCC/C=C/CCCCCCCC(=O)OC[C@H]1O[C@@H](n2ccc(N)nc2=O)C(F)(F)[C@@H]1O | > 49.2 | 0.0675
46 | NS(=O)(=O)c1ccc(N=Nc2c(O)[nH]c3ccc(-c4cnco4)cc23)cc1 | > 25 | > 19.6
47 | CCC[CH2][Sn]1([CH2]CCC)[O]CC(CN2CCCC2)[O]1 (centres undefined) | 37.8 | 22.4

Test system: UACC-62 melanoma
Test: DTP human tumour cell line panel, 48 h

Row | Structure (SMILES) | TGI [µM] | GI50 [µM]
48 | Cc1nc(N)sc1C(=O)/C=C\c1ccc2c(c1)OCO2 | > 100 | 
49 | CN1CCN(CCCOc2ccc3nc(Nc4ccc(Cl)c(C(F)(F)F)c4)ccc3c2)CC1 | 31.7 | 16.4
50 | Cn1c(=O)c(C(c2ccc([N+](=O)[O-])cc2)c2c(O)c3ccccc3n(C)c2=O)cc2ccccc21 (centres undefined) | 42.3 | 
51 | CC(C)n1nc(-c2cc3cc(O)ccc3[nH]2)c2c(N)ncnc21 | 0.962 | 0.161
52 | CCCCC(O)(c1ccc(Cl)cc1)C(CN1CCOCC1)c1ccc(Cl)cc1 (centres undefined) | 28.7 | 12.4
53 | CCOC(=O)C1=C(C)N(NC(=O)Nc2ccccc2)C(=O)C1=P(c1ccccc1)(c1ccccc1)c1ccccc1 | 89.9 | 
54 | COc1cc(C=C2C(=O)NC(=O)NC2=O)cc(OC)c1OC | > 100 | 
55 | Nn1c(=O)n(Cc2ccccc2)n(-c2ccccc2)c1=O | > 100 | 
56 | NCC1Nc2ccccc2[C@@H](O)C1O (some centres undefined) | > 100 | 
57 | OC[C@H]1CCCC1O (some centres undefined) | > 100 | 
58 | Cc1cccc(N2CCN(C(=S)c3ccc4c(c3)OCO4)CC2)c1 | > 100 | 0.64
59 | O=C1OC(C(O)CO)C(=O)C1=O (centres undefined) | > 10000 | 4330
60 | COC(=O)C1=CNC=C(C(=O)OC)C1C1=CC(=O)C(C)=CC1=O | 26.5 | 13.6
61 | C=C1C(=O)O[C@H]2[C@H]1CC/C(COC(=O)C(=O)c1cn(Cc3ccccc3)c3ccccc13)=C\CC[C@@]1(C)O[C@@H]21 | 4.42 | 1.8
62 | Cc1ccc(C(=O)CN(/C=C/C(=O)C(F)(F)F)c2ccc(S(N)(=O)=O)cc2)cc1 | > 100 | > 100
63 | COC(C(O)CO)C(O)C(O)C(=O)NNc1ccccc1 (centres undefined) | > 100 | 

Row | Structure (SMILES) | TGI [µM] | GI50 [µM]
64 | NS(=O)(=O)c1ccc(NC2(C(=O)O)CCCC2)cc1 | > 100 | 
65 | O=C(O)C1OC(n2cc(F)c(=O)[nH]c2=O)CC1O (centres undefined) | > 80.5 | 
66 | CC(C)C(Nc1c2ccccc2nc2ccccc12)C(=O)O (centres undefined) | > 100 | 
67 | N=C1C(c2nc3ccccc3s2)=C(O)CN1c1cc(C(F)(F)F)ccc1Cl | 42.7 | 5.06
68 | COc1ccccc1CCc1cc(OC)c(OC)c(OC)c1 | > 100 | 
69 | COc1cc2c(cc1OC)C(CC(=O)NN=C(C)C)NCC2 (centres undefined) | > 100 | 
70 | COC(=O)/C(=N\Nc1nnc(C)n1N)C(C#N)c1ccc(Cl)cc1 (centres undefined) | > 100 | 
71 | Cc1cccc(NC(=O)C(=O)C(C(=O)c2ccc3ccccc3c2)C2OC(=O)c3ccccc32)c1C (centres undefined) | 22.5 | 
72 | CCOC(=O)[C@@H](N)CCC(=O)N[C@@H](CSCc1ccccc1)C(=O)N[C@@H](C(=O)OCC)c1ccccc1 | 33 | 17.1
73 | COc1ccc(Nc2c3ccccc3nc3occc23)cc1 |  | 0.342
74 | CS/C(N)=N\NC(=O)CCC(=O)Nc1ccccc1C(F)(F)F | > 100 | 
75 | CC(=O)/C(C)=N/NC(=O)c1ccccc1O | > 100 | > 10
76 | CCCCCCCC/C=C/CCCCCCCC(=O)OC[C@H]1O[C@@H](n2ccc(N)nc2=O)C(F)(F)[C@@H]1O | > 100 | 0.0331
77 | NS(=O)(=O)c1ccc(N=Nc2c(O)[nH]c3ccc(-c4cnco4)cc23)cc1 | > 25 | > 25
78 | CCC[CH2][Sn]1([CH2]CCC)[O]CC(CN2CCCC2)[O]1 (centres undefined) | 30.5 | 13.6
